{
  "source": "patent US11192932B2",
  "about": "“Heparin-binding domain of IGFBP-2 in the treatment of metabolic disorders” (Amolyt Pharma, priority 2018, dated 2021)",
  "key": {"3T3-LI adipocytes": {"tested_on": "3T3-LI adipocytes", "test": "[3H]-2-deoxyglucose uptake by fully differentiated 3T3-LI adipocytes", "type": "cell-based, mouse", "details": "3 μg/ml for 24 hours", "experimental": "The cells were exposed to the test compounds at a concentration of 3 μg/ml for 24 hours before testing for [^3H]-2-deoxyglucose uptake.\n3T3-LI cells are a mouse fibroblast cell line which when cultured under specific conditions, differentiate into adipocytes.\nDifferentiation of 3T3-LI cells into adipocytes was achieved using the following protocol. 3T3-L1 cells were seeded in 24-well plates and cultured in 3T3-L1 maintenance medium (DMEM containing 10% fetal bovine serum, 4 mM L-glutamine 1 mM, sodium pyruvate) until the cells were 100% confluent. The cells were then fed with 3T3-L1 maintenance medium and cultured for a further 48 h. To initiate differentiation into adipocytes, the medium was changed to Differentiation medium 1 (DMEM containing 10% fetal bovine serum, 4 mM L-glutamine, 1 mM sodium pyruvate, 0.5 mM IBMX, […]), and cultured for a further 2 days. The medium was then changed to Differentiation medium 2 (DMEM containing 10% fetal bovine serum, 4 mM L-glutamine, 1 mM sodium pyruvate, 1 mg/ml insulin), and cultured for a further 2 days. The medium was then changed to Adipocyte Maintenance medium (DMEM containing 10% fetal bovine serum, 4 mM L-glutamine, 1 mM sodium pyruvate), and cultured for a further 7 days. During this time, the medium was changed every other day. The now fully differentiated adipocytes were utilized for glucose uptake experiments (day 11 from initiation of differentiation). Stock solutions of the HBD1 peptides to be tested were prepared by dilution with 0.9% NaCl solution under sterile conditions in a laminar flow cabinet to a concentration of 1 mg/ml, based on net peptide content. The solutions were homogenized by gentle inversion. Test items were prepared from the stock solutions, and remaining stock solution was aliquoted and stored at −20° C. and used without repeated freeze-thaw cycles.\nGlucose uptake experiments were carried our using the following protocol. Prior to beginning the experiment, 100 ml of Krebs Ringer bicarbonate buffer (KRBB)(25 mM Hepes pH 7.4, 118 mM NaCl, 5 mM NaHCO3, 4.7 mM KCl, 1.2 mM KH2PO4, 1.2 mM MgSO4, 2.5 mM CaCl2, 0.2% BSA—Filtered using a 0.2 μm filter) and 100 ml of Incubation medium (DMEM containing 4 mM L-glutamine, 1 mM sodium pyruvate, 1% penicillin streptomycin, 0.2% BSA—Filtered using a 0.2 μm filter) were pre-warmed to 37° C., and 500 ml of KRBB was chilled on ice. Stock solutions of test compounds were diluted to 3 μg/ml final concentrations in pre-warmed Incubation medium and in pre-warmed KRBB. Insulin (positive control), previously diluted 1:1000 in sterile 0.9% NaCl, was further diluted in 10 ml of both medium and buffer to a final concentration of 1 nM. All traces of the medium were carefully removed from the cells using a fine tip. […]"}, "ob/ob mice": {"tested_on": "ob/ob mice", "test": "Intraperitoneal glucose tolerance test (IPGTT) in ob/ob mice after 15 days of treatment", "type": "in vivo, mouse", "details": "3 mg/kg subcutaneously twice daily for 15 days, overnight fasted, glucose 1 g/kg i.p., vs vehicle", "experimental": "Data shown are blood glucose levels (Mean±SEM) 45 min after intraperitoneal glucose tolerance test (IPGTT). (n=5 in each group; ***: p value <0.001).\nAfter being acclimatized 7 days to the laboratory conditions, nine-week-old male B6. V-Lepob/J. mice (Charles River) were subcutaneously administered with vehicle (NaCl 0.9%) or with a peptide as set forth in SEQ ID NO: 73 (C18:0-HLGLEEPKK) at 3 mg/kg (n=5 animals for each group) twice daily for 15 days. On day 15, fasted (overnight) mice were injected intraperitoneally with glucose at 1 g/kg. Plasma blood glucose (expressed as mmol/L) was recorded at 45 minutes post glucose injection."}},
  "note": "No end group written: not given here. *: point of attachment. Stearoyl = CCCCCCCCCCCCCCCCCC(=O)*",
  "data": [
    {"substance": "C18:0-HLGLEEPKK (Stearoyl-HLGLEEPKK) [SEQ ID NO: 73]", "values": [
      {"measurement": "glucose uptake by 3T3-LI adipocytes", "setting": "3T3-LI adipocytes", "result": "stimulated increased glucose uptake"},
      {"measurement": "blood glucose levels 45 min after intraperitoneal glucose tolerance test (IPGTT)", "setting": "ob/ob mice", "result": "reduced the plasma glucose levels"},
      {"measurement": "blood glucose levels 45 min after intraperitoneal glucose tolerance test (IPGTT)", "setting": "ob/ob mice; listed as acylated HBD1 (3-11) fragment", "result": "improves glucose intolerance"}
    ]}
  ]
}
